Test results as given in PubChem BioAssay AID248 (DTP/NCI, 2004).
Where “and” joins values, the source holds several entries; their conditions need not be identical. Equal entries are not always repeated. Inconclusive results and toxic doses are left out. Rule as the data show it: active = T/C of 150% or more; inactive = T/C below 125%.

Tested on: L1210 leukemia ip in BDF1 mice, survival T/C
Assay: NCI In Vivo Anticancer Drug Screen. Data for tumor model L1210 Leukemia (intraperitoneal) in B6D2F1 (BDF1) mice
Details: endpoint: mean survival time, higher = longer survival
Summary of the method: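 Antitumor effect is assessed in tumor-bearing animals. Survival in the compound arm is compared with a vehicle-dosed control arm and expressed as their quotient.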

[1] = dose: 100.0 mg/kg/injection, schedule: Q04DX002 (ip), vehicle: saline with Tween-80
[2] = dose: 100.0 mg/kg/injection, schedule: Q01DX009 (ip), vehicle: saline
[3] = dose: 100.0 mg/kg/injection, schedule: Q04DX003 (ip), vehicle: saline
[4] = dose: 200.0 mg/kg/injection, schedule: Q01DX009 (ip), vehicle: saline
[5] = dose: 200.0 mg/kg/injection, schedule: Q04DX003 (ip), vehicle: saline
[6] = dose: 100.0 mg/kg/injection, schedule: Q01DX009 (ip), vehicle: saline with Tween-80
[7] = dose: 200.0 mg/kg/injection, schedule: Q01DX009 (ip), vehicle: saline with Tween-80
[8] = dose: 400.0 mg/kg/injection, schedule: Q01DX009 (ip), vehicle: saline with Tween-80
[9] = dose: 100.0 mg/kg/injection, schedule: Q01DX001 (ip), vehicle: saline
[10] = dose: 200.0 mg/kg/injection, schedule: Q01DX001 (ip), vehicle: saline
[11] = dose: 400.0 mg/kg/injection, schedule: Q01DX001 (ip), vehicle: saline
[12] = dose: 100.0 mg/kg/injection, schedule: Q01DX001 (ip), vehicle: carboxymethylcellulose (CMC)
[13] = dose: 200.0 mg/kg/injection, schedule: Q01DX001 (ip), vehicle: carboxymethylcellulose (CMC)
[14] = dose: 400.0 mg/kg/injection, schedule: Q01DX001 (ip), vehicle: carboxymethylcellulose (CMC)
[15] = dose: 100.0 mg/kg/injection, schedule: Q04DX003 (ip), vehicle: saline with Tween-80
[16] = dose: 400.0 mg/kg/injection, schedule: Q04DX003 (ip), vehicle: saline
[17] = dose: 200.0 mg/kg/injection, schedule: Q04DX003 (ip), vehicle: saline with Tween-80

Measured: T/C

CC([NH-])C(=O)O.CC([NH-])C(=O)O.CC([NH-])C(=O)O.[Co+3] (centres undefined)
inactive: dose: 25.0 mg/kg/injection, schedule: Q04DX002 (ip), vehicle: saline with Tween-80 115 % of control | dose: 50.0 mg/kg/injection, schedule: Q01DX009 (ip), vehicle: water 103 % of control | dose: 50.0 mg/kg/injection, schedule: Q04DX002 (ip), vehicle: saline with Tween-80 98 % of control | dose: 100.0 mg/kg/injection, schedule: Q01DX009 (ip), vehicle: water 118 % of control | [1] 115 % of control

Cn1cnc([N+](=O)[O-])c1Cl
inactive: dose: 50.0 mg/kg/injection, schedule: Q01DX009 (ip), vehicle: saline 102 % of control | [2] 103 % of control | [3] 94 % of control | [4] 92 % of control | [5] 102 % of control

OCC1CC=CCC1 (centres undefined)
inactive: [6] 105 % of control | [7] 106 % of control | [8] 117 % of control

O=C(NN1C(=O)c2cccc3cccc(c23)C1=O)NN1C(=O)c2cccc3cccc(c23)C1=O
inactive: dose: 100.0 mg/kg/injection, schedule: Q04DX002 (ip), vehicle: Klucel (hydroxypropylcellulose) (HPC) 92 % of control | dose: 200.0 mg/kg/injection, schedule: Q04DX002 (ip), vehicle: Klucel (hydroxypropylcellulose) (HPC) 92 % of control

N#C/C(=C\c1c[nH]c2ccccc12)c1ccc([N+](=O)[O-])cc1
inactive: dose: 100.0 mg/kg/injection, schedule: Q04DX002 (ip), vehicle: gum acacia 95 % of control | dose: 200.0 mg/kg/injection, schedule: Q04DX002 (ip), vehicle: gum acacia 101 % of control

CN(C)/C(N)=N/S(=O)(=O)c1ccc(C#N)cc1
inactive: [9] 88 % of control | [10] 96 % of control | [11] 94 % of control

COC(=O)c1c(C(=O)N(C)C)n[nH]c1C1OCC2OC(C)(C)OC21 (centres undefined)
inactive: dose: 100.0 mg/kg/injection, schedule: Q01DX005 (ip), vehicle: saline 100 % of control | dose: 200.0 mg/kg/injection, schedule: Q01DX005 (ip), vehicle: saline 100 % of control

CCC(CCc1ccc(OC)c(OC)c1)C(=O)O (centres undefined)
inactive: dose: 100.0 mg/kg/injection, schedule: Q01DX001 (ip), vehicle: saline with Tween-80 93 % of control | dose: 200.0 mg/kg/injection, schedule: Q01DX001 (ip), vehicle: saline with Tween-80 98 % of control | dose: 400.0 mg/kg/injection, schedule: Q01DX001 (ip), vehicle: saline with Tween-80 98 % of control

Cc1cc([N+](=O)[O-])ccc1I
inactive: dose: 50.0 mg/kg/injection, schedule: Q01DX001 (ip), vehicle: carboxymethylcellulose (CMC) 101 % of control | [12] 95 % of control | [13] 95 % of control | [14] 90 % of control

Cc1ccc(C)c(CCN)c1
inactive: dose: 25.0 mg/kg/injection, schedule: Q01DX009 (ip), vehicle: saline with Tween-80 103 % of control | dose: 50.0 mg/kg/injection, schedule: Q01DX009 (ip), vehicle: saline with Tween-80 98 % of control | dose: 50.0 mg/kg/injection, schedule: Q04DX003 (ip), vehicle: saline with Tween-80 100 % of control | [6] 94 % of control | [15] 92 % of control

O=C(NC(=O)c1ccc([N+](=O)[O-])cc1)OCCCl
inactive: dose: 100.0 mg/kg/injection, schedule: Q01DX001 (ip), vehicle: Klucel (hydroxypropylcellulose) (HPC) 92 % of control | dose: 200.0 mg/kg/injection, schedule: Q01DX001 (ip), vehicle: Klucel (hydroxypropylcellulose) (HPC) 97 % of control | dose: 400.0 mg/kg/injection, schedule: Q01DX001 (ip), vehicle: Klucel (hydroxypropylcellulose) (HPC) 105 % of control

C=CCN(c1ccccc1)P(=O)(N1CC1)N1CC1
inactive: [12] 96 % of control | [13] 96 % of control | [14] 96 % of control

CCOC(=O)CCC(NC(=O)C1CSC(C)(C)N1C=O)C(=O)OCC (centres undefined)
inactive: [3] 104 % of control | [5] 93 % of control | [16] 98 % of control

O=C(O)c1cocc1C(=O)N1Cc2cc3ccccc3nc2C1
inactive: dose: 10.0 mg/kg/injection, schedule: Q04DX003 (ip), vehicle: saline 103 % of control | dose: 20.0 mg/kg/injection, schedule: Q04DX003 (ip), vehicle: saline 97 % of control | dose: 40.0 mg/kg/injection, schedule: Q04DX003 (ip), vehicle: saline 105 % of control | dose: 80.0 mg/kg/injection, schedule: Q04DX003 (ip), vehicle: saline 100 % of control | dose: 160.0 mg/kg/injection, schedule: Q04DX003 (ip), vehicle: saline 103 % of control

CC(Br)C(=O)OCc1ccccc1 (centres undefined)
inactive: [2] 91 % of control | [4] 91 % of control | dose: 400.0 mg/kg/injection, schedule: Q01DX009 (ip), vehicle: saline 93 % of control

c1cc(OCC2CO2)ccc1OCC1CO1 (centres undefined)
inactive: dose: 100.0 mg/kg/injection, schedule: Q01DX001 (ip), vehicle: other 115 % of control | dose: 200.0 mg/kg/injection, schedule: Q01DX001 (ip), vehicle: other 124 % of control | dose: 400.0 mg/kg/injection, schedule: Q01DX001 (ip), vehicle: other 121 % of control

Cc1cc(C(=O)O)c(C(=O)O)c(Cl)n1
inactive: dose: 75.0 mg/kg/injection, schedule: Q01DX001 (ip), vehicle: other 90 % of control | dose: 150.0 mg/kg/injection, schedule: Q01DX001 (ip), vehicle: other 95 % of control | dose: 300.0 mg/kg/injection, schedule: Q01DX001 (ip), vehicle: other 91 % of control

CC1C[N-]CC(C)C1.CC1C[N-]CC(C)C1.[Cl][Pt+2]([Cl])([Cl])[Cl] (centres undefined)
inactive: dose: 12.5 mg/kg/injection, schedule: Q01DX009 (ip), vehicle: saline 107 % of control | dose: 12.5 mg/kg/injection, schedule: Q04DX003 (ip), vehicle: saline 87 % of control | dose: 25.0 mg/kg/injection, schedule: Q01DX009 (ip), vehicle: saline 102 % of control | dose: 25.0 mg/kg/injection, schedule: Q04DX003 (ip), vehicle: saline 87 % of control | dose: 50.0 mg/kg/injection, schedule: Q04DX003 (ip), vehicle: saline 95 % of control and 106 % of control | [3] 91 % of control

C#CC1(OCC2CN(c3ccccc3)C(=O)O2)CCCCC1 (centres undefined)
inactive: [6] 106 % of control | [15] 97 % of control | [7] 108 % of control | [17] 105 % of control | [8] 108 % of control | dose: 400.0 mg/kg/injection, schedule: Q04DX003 (ip), vehicle: saline with Tween-80 92 % of control

C=CCOc1ccccc1Cl
inactive: dose: 100.0 mg/kg/injection, schedule: Q01DX009 (ip), vehicle: Klucel (hydroxypropylcellulose) (HPC) 110 % of control | dose: 100.0 mg/kg/injection, schedule: Q04DX003 (ip), vehicle: Klucel (hydroxypropylcellulose) (HPC) 94 % of control | dose: 200.0 mg/kg/injection, schedule: Q01DX009 (ip), vehicle: Klucel (hydroxypropylcellulose) (HPC) 88 % of control | dose: 200.0 mg/kg/injection, schedule: Q04DX003 (ip), vehicle: Klucel (hydroxypropylcellulose) (HPC) 106 % of control | dose: 400.0 mg/kg/injection, schedule: Q01DX009 (ip), vehicle: Klucel (hydroxypropylcellulose) (HPC) 106 % of control | dose: 400.0 mg/kg/injection, schedule: Q04DX003 (ip), vehicle: Klucel (hydroxypropylcellulose) (HPC) 103 % of control

CC(C)N(CCNc1nc(C(Cl)(Cl)Cl)nc2cc(Cl)ccc12)C(C)C
inactive: [15] 93 % of control | [17] 94 % of control

N#CCCc1c(-c2ccccc2)nc(N)[nH]c1=O
inactive: dose: 100.0 mg/kg/injection, schedule: Q04DX003 (ip), vehicle: carboxymethylcellulose (CMC) 92 % of control | dose: 200.0 mg/kg/injection, schedule: Q04DX003 (ip), vehicle: carboxymethylcellulose (CMC) 92 % of control | dose: 400.0 mg/kg/injection, schedule: Q04DX003 (ip), vehicle: carboxymethylcellulose (CMC) 87 % of control

CCNC(=S)NC1CCCCCCCCCCC1
inactive: [1] 94 % of control | dose: 200.0 mg/kg/injection, schedule: Q04DX002 (ip), vehicle: saline with Tween-80 87 % of control

COc1ccc(/C=C2\N=C(c3ccccc3)OC2=O)cc1OC
inactive: dose: 50.0 mg/kg/injection, schedule: Q01DX001 (ip), vehicle: saline 105 % of control | [9] 109 % of control | [3] 96 % of control | [10] 105 % of control | [5] 100 % of control | [11] 100 % of control | [16] 96 % of control
